Target: bovine cardiac myosin (Bos taurus, UniProt Q9BE39)
Assay: Myosin activation assay (PK/LDH-coupled ATPase, bovine cardiac myofibrils)
Assay type: biochemical
Conditions: AC20 = concentration at which total response is increased by twenty percent
Description: Small molecule agents were assessed for their ability to activate the enzymatic activity of bovine cardiac myosin using a biochemical assay that couples the release of ADP (adenosine diphosphate) from cardiac myosin to an enzymatic coupling system consisting of pyruvate kinase and lactate dehydrogenase (PK/LDH) and monitoring the absorbance decrease of NADH (at 340 nm) as a function of time. PK converts ADP to ATP (adenosine triphosphate) by converting PEP (phosphoenolpyruvate) to pyruvate. Pyruvate is then converted to lactate by LDH by converting NADH (nicotinamide adenine dinucleotide) to NAD (oxidized nicotinamide adenine dinucleotide). The source of cardiac myosin was from bovine heart in the form of skinned myofibrils. Prior to testing small molecule agents, the bovine myofibrils were assessed for their calcium responsiveness and the calcium concentration that achieves either a 50% (pCa50 or pCa=˜6) or <5% (pCa=10) activation of the myofibril system was chosen as the final condition for assessing the activation activity of the small molecule agents. All enzymatic activity was measured in a buffered solution containing 12 mM PIPES (piperazine-N,N′-bis(2-ethanesulfonic acid), 2 mM magnesium chloride at pH 6.8 (PM12 buffer). Final assay conditions were 1 mg/mL of bovine cardiac myofibrils, 0.4 mM PK/LDH, 50 uM ATP, 0.1 mg/mL BSA (bovine serum albumin), 10 ppm antifoam, 2 mM BME, 0.5 mM NADH, 1.5 mM PEP at the desired free calcium concentration required to achieve either 50% or <5% activation of the myofibrils.
A dilution series of compound was created in DMSO such that the final desired concentration of compound would be achieved in a volume of […] with a fixed DMSO concentration of 3.3% (v/v). Typically a 1 μL of the dilution series was added to a 384 well plate to achieve a 10 point dose response. Following the addition of 14 μL of a solution containing bovine cardiac myofibrils, PK/LDH and a solution of calcium (that achieved the desired activation), the enzymatic reaction was started with the addition of 15 μL of a solution containing ATP, PEP and NADH. The reaction progress was followed in a PerkinElmer Envision plate reader at ambient temperature using clear bottom plates. The plate reader was configured to read absorbance at 340 nm in kinetics mode for 15 minutes. Data were recorded as the slope of the absorbance response to time. The slopes of the absorbance response as a function of time were normalized to slopes on the plate containing DMSO. This normalized rate was then plotted as a function of small molecule concentration and the data was fitted to a four-parameter fit using EXCEL XLfit. The concentration at which the total response is increased by twenty or fifty percent is reported as AC20 or AC50.

Chain of bovine cardiac myosin (Q9BE39 whole entry): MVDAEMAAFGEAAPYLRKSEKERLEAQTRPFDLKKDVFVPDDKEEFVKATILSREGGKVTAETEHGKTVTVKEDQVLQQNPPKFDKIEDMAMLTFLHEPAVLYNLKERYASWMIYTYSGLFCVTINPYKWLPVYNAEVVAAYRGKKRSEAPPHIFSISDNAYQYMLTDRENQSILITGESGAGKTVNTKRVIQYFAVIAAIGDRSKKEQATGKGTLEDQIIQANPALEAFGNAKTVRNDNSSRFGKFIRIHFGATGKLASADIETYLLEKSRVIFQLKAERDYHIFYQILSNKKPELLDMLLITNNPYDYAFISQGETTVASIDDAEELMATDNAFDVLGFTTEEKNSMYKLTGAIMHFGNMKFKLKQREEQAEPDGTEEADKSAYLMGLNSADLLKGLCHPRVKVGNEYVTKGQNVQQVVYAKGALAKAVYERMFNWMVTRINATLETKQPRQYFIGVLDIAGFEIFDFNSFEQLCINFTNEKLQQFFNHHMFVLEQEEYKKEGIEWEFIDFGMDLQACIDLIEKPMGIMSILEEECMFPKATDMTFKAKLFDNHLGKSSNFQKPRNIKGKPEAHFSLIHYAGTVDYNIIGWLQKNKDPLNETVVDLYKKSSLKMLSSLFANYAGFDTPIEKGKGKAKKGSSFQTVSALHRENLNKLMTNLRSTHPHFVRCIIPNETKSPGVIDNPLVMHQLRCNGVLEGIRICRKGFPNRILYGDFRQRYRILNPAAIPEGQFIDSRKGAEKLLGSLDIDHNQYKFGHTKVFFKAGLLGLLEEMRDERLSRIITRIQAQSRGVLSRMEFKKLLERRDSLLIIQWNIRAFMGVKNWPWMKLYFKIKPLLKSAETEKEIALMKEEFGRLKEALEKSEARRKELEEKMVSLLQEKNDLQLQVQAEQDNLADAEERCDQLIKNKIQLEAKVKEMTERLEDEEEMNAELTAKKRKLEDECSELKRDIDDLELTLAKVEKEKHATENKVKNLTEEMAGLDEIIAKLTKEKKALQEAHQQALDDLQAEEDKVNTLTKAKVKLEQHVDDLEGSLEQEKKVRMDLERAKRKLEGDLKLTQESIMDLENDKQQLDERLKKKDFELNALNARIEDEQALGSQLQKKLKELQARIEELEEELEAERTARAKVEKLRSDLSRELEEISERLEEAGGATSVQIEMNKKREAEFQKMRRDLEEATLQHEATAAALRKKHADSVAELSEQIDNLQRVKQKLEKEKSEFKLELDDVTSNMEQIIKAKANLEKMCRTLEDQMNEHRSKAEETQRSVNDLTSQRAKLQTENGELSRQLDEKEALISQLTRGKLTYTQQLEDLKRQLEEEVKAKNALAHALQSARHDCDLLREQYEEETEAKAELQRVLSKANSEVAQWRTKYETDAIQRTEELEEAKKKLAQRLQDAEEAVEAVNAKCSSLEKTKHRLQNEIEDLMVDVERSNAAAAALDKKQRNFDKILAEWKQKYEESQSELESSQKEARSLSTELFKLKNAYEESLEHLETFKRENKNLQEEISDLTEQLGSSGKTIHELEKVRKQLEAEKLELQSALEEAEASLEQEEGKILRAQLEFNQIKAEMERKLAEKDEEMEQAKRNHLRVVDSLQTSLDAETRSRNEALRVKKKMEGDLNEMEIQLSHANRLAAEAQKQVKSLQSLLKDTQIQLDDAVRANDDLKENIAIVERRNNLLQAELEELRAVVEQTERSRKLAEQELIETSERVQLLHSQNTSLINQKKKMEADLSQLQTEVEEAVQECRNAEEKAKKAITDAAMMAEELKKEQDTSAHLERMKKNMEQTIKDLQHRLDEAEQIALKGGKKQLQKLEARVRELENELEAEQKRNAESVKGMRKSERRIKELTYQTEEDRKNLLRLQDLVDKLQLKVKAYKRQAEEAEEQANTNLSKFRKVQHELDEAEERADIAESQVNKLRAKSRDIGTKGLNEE
Chain of bovine cardiac myosin (P85100 whole entry partner): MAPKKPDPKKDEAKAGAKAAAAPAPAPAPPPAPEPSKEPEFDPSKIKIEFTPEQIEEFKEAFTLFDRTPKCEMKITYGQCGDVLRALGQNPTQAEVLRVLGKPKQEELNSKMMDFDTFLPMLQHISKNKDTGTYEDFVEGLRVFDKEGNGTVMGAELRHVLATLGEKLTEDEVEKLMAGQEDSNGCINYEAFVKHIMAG
Chain of bovine cardiac myosin (Q3SZE5 whole entry partner): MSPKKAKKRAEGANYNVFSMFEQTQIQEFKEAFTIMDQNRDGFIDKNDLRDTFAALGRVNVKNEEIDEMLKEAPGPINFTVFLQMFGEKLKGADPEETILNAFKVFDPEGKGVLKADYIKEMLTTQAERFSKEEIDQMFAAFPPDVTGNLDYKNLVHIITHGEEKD

With Cn1nccc1S(=O)(=O)C(C)(C)C1CCN(C(=O)Nc2ccnnc2)CC1 [Compound 192, 4-(2-((1-methyl-1H-pyrazol-5-yl)sulfonyl)propan-2-yl)-N-(pyridazin-4-yl)piperidine-1-carboxamide] as the molecule, how does the “Myosin Activation (AC20)” value read?
The value was “+++ (+++ represents myosin activation value AC20 < 2 μM)”.

Which “Myosin Activation (AC20)” value does the source give for O=C(Nc1ccnnc1)N1CCC(C(F)(F)S(=O)(=O)c2ccccc2-n2cncn2)CC1 [Compound 86, 4-(((2-(1H-1,2,4-triazol-1-yl)phenyl)sulfonyl)difluoromethyl)-N-(pyridazin-4-yl)piperidine-1-carboxamide] here?
Its value is “++ (++ represents myosin activation value AC20 from 2 μM-5 μM)”.

O=C(Nc1cncs1)N1CCC(C2(S(=O)(=O)c3cccc(F)c3)CC2)CC1 [Compound 37, 4-(1-((3-fluorophenyl)sulfonyl)cyclopropyl)-N-(thiazol-5-yl)piperidine-1-carboxamide] was tested. Which “Myosin Activation (AC20)” value did it give?
The value was “+++ (+++ represents myosin activation value AC20 < 2 μM)”.

With CC(C)(C1CCN(C(=O)Nc2ccns2)CC1)S(=O)(=O)c1ccccc1Cl [Compound 208, 4-(2-((2-chlorophenyl)sulfonyl)propan-2-yl)-N-(isothiazol-5-yl)piperidine-1-carboxamide] as the molecule, how does the “Myosin Activation (AC20)” value read?
The value was “++ (++ represents myosin activation value AC20 from 2 μM-5 μM)”.

How did the “Myosin Activation (AC20)” value turn out when CC(C)(C1CCN(C(=O)Nc2cn[nH]c2)CC1)S(=O)(=O)c1cccc(F)c1 [Compound 146, 4-(2-((3-fluorophenyl)sulfonyl)propan-2-yl)-N-(1H-pyrazol-4-yl)piperidine-1-carboxamide] was run?
Its value is “++ (++ represents myosin activation value AC20 from 2 μM-5 μM)”.

With Cn1nccc1-c1ccc(S(=O)(=O)C(F)(F)C2CCN(C(=O)Nc3ccnnc3)CC2)cc1 [Compound 58, 4-(difluoro((4-(1-methyl-1H-pyrazol-5-yl)phenyl)sulfonyl)methyl)-N-(pyridazin-4-yl)piperidine-1-carboxamide] as the molecule, how does the “Myosin Activation (AC20)” value read?
Its value is “+ (+ represents myosin activation value AC20 > 5 μM)”.

Which “Myosin Activation (AC20)” value does the source give for Cn1cnc(S(=O)(=O)C(F)(F)C2CCN(C(=O)Nc3ccnnc3)CC2)c1 [Compound 84, 4-(difluoro((1-methyl-1H-imidazol-4-yl)sulfonyl)methyl)-N-(pyridazin-4-yl)piperidine-1-carboxamide] here?
Its value is “+ (+ represents myosin activation value AC20 > 5 μM)”.

Cc1ccccc1S(=O)(=O)C(C)(C)C1CCN(C(=O)Nc2ccns2)CC1 [Compound 213, N-(isothiazol-5-yl)-4-(2-(o-tolylsulfonyl)propan-2-yl)piperidine-1-carboxamide] was tested. Which “Myosin Activation (AC20)” value did it give?
Its value is “+++ (+++ represents myosin activation value AC20 < 2 μM)”.

How did the “Myosin Activation (AC20)” value turn out when CC(C)(C)OC(=O)n1cc(NC(=O)N2CCC(C(C)(F)S(=O)(=O)c3cccc(F)c3)CC2)cn1 (stereo not drawn) [Compound 237, tert-butyl 4-(4-(1-fluoro-1-((3-fluorophenyl)sulfonyl)ethyl)piperidine-1-carboxamido)-1H-pyrazole-1-carboxylate] was run?
The value was “+ (+ represents myosin activation value AC20 > 5 μM)”.

Which “Myosin Activation (AC20)” value does the source give for COc1ccc(S(=O)(=O)[C@](C)(F)C2CCN(C(=O)Nc3ccon3)CC2)cn1 [Compound 307, (S)-4-(1-fluoro-1-((6-methoxypyridin-3-yl)sulfonyl)ethyl)-N-(isoxazol-3-yl)piperidine-1-carboxamide] here?
The value was “+ (+ represents myosin activation value AC20 > 5 μM)”.

With O=C(Nc1ccnnc1)N1CCC(C(F)(F)S(=O)(=O)c2ccc(C(F)(F)F)c(F)c2)CC1 [Compound 69, 4-(difluoro((3-fluoro-4-(trifluoromethyl)phenyl)sulfonyl)methyl)-N-(pyridazin-4-yl)piperidine-1-carboxamide] as the molecule, how does the “Myosin Activation (AC20)” value read?
The value was “++ (++ represents myosin activation value AC20 from 2 μM-5 μM)”.

Which “Myosin Activation (AC20)” value does the source give for Cn1nccc1S(=O)(=O)C(C)(C)C1CCN(C(=O)Nc2ccncc2)CC1 [Compound 194, 4-(2-((1-methyl-1H-pyrazol-5-yl)sulfonyl)propan-2-yl)-N-(pyridin-4-yl)piperidine-1-carboxamide] here?
The value was “++ (++ represents myosin activation value AC20 from 2 μM-5 μM)”.

For Cn1cc(S(=O)(=O)C(C)(C)C2CCN(C(=O)Nc3ccc(F)nc3)CC2)c(C(F)F)n1 [Compound 117, 4-(2-((3-(difluoromethyl)-1-methyl-1H-pyrazol-4-yl)sulfonyl)propan-2-yl)-N-(6-fluoropyridin-3-yl)piperidine-1-carboxamide], which “Myosin Activation (AC20)” value is on record?
The value was “++ (++ represents myosin activation value AC20 from 2 μM-5 μM)”.

How did the “Myosin Activation (AC20)” value turn out when CC(C)(C1CCN(C(=O)Nc2cncc(F)c2)CC1)S(=O)(=O)c1cccc(F)c1 [Compound 119, 4-(2-((3-fluorophenyl)sulfonyl)propan-2-yl)-N-(5-fluoropyridin-3-yl)piperidine-1-carboxamide] was run?
Its value is “++ (++ represents myosin activation value AC20 from 2 μM-5 μM)”.

For Cn1cc(S(=O)(=O)C(F)(F)C2CCN(C(=O)Nc3ccc(C#N)nc3)CC2)c(C(F)F)n1 [Compound 78, N-(6-cyanopyridin-3-yl)-4-(((3-(difluoromethyl)-1-methyl-1H-pyrazol-4-yl)sulfonyl)difluoromethyl)piperidine-1-carboxamide], which “Myosin Activation (AC20)” value is on record?
Its value is “+ (+ represents myosin activation value AC20 > 5 μM)”.

With Cn1nc(C(F)F)cc1S(=O)(=O)C(C)(C)C1CCN(C(=O)Nc2ccon2)CC1 [Compound 108, 4-(2-((3-(difluoromethyl)-1-methyl-1H-pyrazol-5-yl)sulfonyl)propan-2-yl)-N-(isoxazol-3-yl)piperidine-1-carboxamide] as the molecule, how does the “Myosin Activation (AC20)” value read?
Its value is “++ (++ represents myosin activation value AC20 from 2 μM-5 μM)”.

How did the “Myosin Activation (AC20)” value turn out when CC(F)(C1CCN(C(=O)Nc2ccnnc2)CC1)S(=O)(=O)c1cccc(Cl)c1 (stereo not drawn) [Compound 264, 4-(1-((3-chlorophenyl)sulfonyl)-1-fluoroethyl)-N-(pyridazin-4-yl)piperidine-1-carboxamide] was run?
The value was “+++ (+++ represents myosin activation value AC20 < 2 μM)”.

Which “Myosin Activation (AC20)” value does the source give for Cc1ccc(NC(=O)N2CCC(C(C)(C)S(=O)(=O)c3cccc(F)c3)CC2)nn1 [Compound 121, 4-(2-((3-fluorophenyl)sulfonyl)propan-2-yl)-N-(6-methylpyridazin-3-yl)piperidine-1-carboxamide] here?
The value was “+ (+ represents myosin activation value AC20 > 5 μM)”.

How did the “Myosin Activation (AC20)” value turn out when Cc1nocc1NC(=O)N1CCC(C(C)(F)S(=O)(=O)c2cccc(F)c2)CC1 (stereo not drawn) [Compound 238, 4-(1-fluoro-1-((3-fluorophenyl)sulfonyl)ethyl)-N-(3-methylisoxazol-4-yl)piperidine-1-carboxamide] was run?
Its value is “+ (+ represents myosin activation value AC20 > 5 μM)”.

How did the “Myosin Activation (AC20)” value turn out when C[C@@H](O)c1cc(NC(=O)N2CCC([C@](C)(F)S(=O)(=O)c3cccc(F)c3)CC2)ccn1 [Compound 303, 4-((R)-1-fluoro-1-((3-fluorophenyl)sulfonyl)ethyl)-N-(2-((R)-1-hydroxyethyl)pyridin-4-yl)piperidine-1-carboxamide] was run?
Its value is “+ (+ represents myosin activation value AC20 > 5 μM)”.

Which “Myosin Activation (AC20)” value does the source give for CCn1nccc1S(=O)(=O)C(C)(C)C1CCN(C(=O)Nc2ccncc2)CC1 [Compound 184, 4-(2-((1-ethyl-1H-pyrazol-5-yl)sulfonyl)propan-2-yl)-N-(pyridin-4-yl)piperidine-1-carboxamide] here?
Its value is “++ (++ represents myosin activation value AC20 from 2 μM-5 μM)”.

For CC(C)(C1CCN(C(=O)Nc2ccnnc2)CC1)S(=O)(=O)c1ccc2ccnn2c1 [Compound 189, 4-(2-(pyrazolo[1,5-a]pyridin-6-ylsulfonyl)propan-2-yl)-N-(pyridazin-4-yl)piperidine-1-carboxamide], which “Myosin Activation (AC20)” value is on record?
The value was “+++ (+++ represents myosin activation value AC20 < 2 μM)”.

With Cc1cc(S(=O)(=O)C(F)(F)C2CCN(C(=O)Nc3ccnnc3)CC2)n(C)n1 [Compound 23, 4-(((1,3-Dimethyl-1H-pyrazol-5-yl)sulfonyl)difluoromethyl)-N-(pyridazin-4-yl)piperidine-1-carboxamide] as the molecule, how does the “Myosin Activation (AC20)” value read?
Its value is “++ (++ represents myosin activation value AC20 from 2 μM-5 μM)”.

How did the “Myosin Activation (AC20)” value turn out when N#Cc1cc(C(F)(F)F)ccc1S(=O)(=O)C(F)(F)C1CCN(C(=O)Nc2ccnnc2)CC1 [Compound 3, 4-(((2-Cyano-4-(trifluoromethyl)phenyl)sulfonyl)difluoromethyl)-N-(pyridazin-4-yl)piperidine-1-carboxamide] was run?
Its value is “+++ (+++ represents myosin activation value AC20 < 2 μM)”.

Reference: US11123337B2, “4-methylsulfonyl-substituted piperidine urea compounds” (MYOKARDIA, INC., priority 2015, dated 2021)
